Measurements from patent US11312723B2, “Pyranopyrazole and pyrazolopyridine immunomodulators for treatment of autoimmune diseases” (The Rockefeller University, priority 2017, dated 2022).

Key:
Human FXIIa = Human FXIIa (Homo sapiens (Human), UniProt P00748); assay: Factor XIIa (FXIIa) inhibitory activity, chromogenic substrate (Pefachrome XIIa) cleavage; format: biochemical; conditions: 10 min pre-incubation, Pefachrome XIIa 400 μM
Human alpha-thrombin = Human alpha-thrombin (Homo sapiens (Human), UniProt P00734); assay: Thrombin counterscreen for selectivity, fluorogenic substrate cleavage; format: biochemical; conditions: 10 min pre-incubation, Boc-Val-Pro-Arg-AMC 20 μM
Protocol: Counterscreens for Selectivity:
Thrombin. In a 96-well white opaque plate, 80 μl of assay buffer was added to each well. Test compounds were added, and serially diluted as above, to generate a concentration range of approximately 1-100 μM. Human alpha-thrombin (Enzyme Research Labs) was diluted in assay buffer to a final concentration of 12.5 nM. 80 μl of this enzyme solution was added to the assay wells. The enzyme/compound mixtures were incubated for 10 minutes at room temperature. Fluorogenic substrate (Boc-Val-Pro-Arg-7-amido-4-methylcoumarin; Sigma) was added to assay wells at a final concentration of 20 μM. The assay plate was spun for 1 minute at 1500 g and then read at 37° C. in a SpectraMax M2 plate reader (λex=380 nm and λem=460 nm). Activity was quantified as the rate of change in fluorescence, which corresponds to the rate of substrate cleavage. IC50 values were determined as the concentration of inhibitor that produced 50% of the rate of change of control wells without any inhibitor. For compounds with activity <1 μM, the assay was repeated with a lower concentration range, typically from 10-1000 nM.

Human FXIIa, sequence (P00748 373-615): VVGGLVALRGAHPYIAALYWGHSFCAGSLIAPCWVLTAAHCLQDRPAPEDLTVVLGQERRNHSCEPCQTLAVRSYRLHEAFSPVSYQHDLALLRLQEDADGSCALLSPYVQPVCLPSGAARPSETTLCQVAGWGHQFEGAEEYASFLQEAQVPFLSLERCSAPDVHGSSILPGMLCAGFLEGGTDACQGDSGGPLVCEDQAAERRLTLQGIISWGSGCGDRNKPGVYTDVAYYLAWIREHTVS
Human FXIIa, sequence (P00748 20-372 partner): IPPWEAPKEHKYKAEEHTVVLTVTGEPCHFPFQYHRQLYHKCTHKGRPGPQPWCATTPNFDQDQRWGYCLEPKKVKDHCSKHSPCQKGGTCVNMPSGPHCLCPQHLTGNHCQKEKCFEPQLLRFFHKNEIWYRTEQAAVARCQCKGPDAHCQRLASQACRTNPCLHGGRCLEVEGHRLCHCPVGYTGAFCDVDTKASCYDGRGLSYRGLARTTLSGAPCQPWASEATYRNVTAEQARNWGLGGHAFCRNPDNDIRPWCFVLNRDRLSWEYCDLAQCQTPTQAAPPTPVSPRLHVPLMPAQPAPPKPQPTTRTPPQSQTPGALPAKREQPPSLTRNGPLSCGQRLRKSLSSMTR

IC50 (Human FXIIa) [nM]	IC50 (Human alpha-thrombin) [nM]	Compound
30	> 75000	CCN1CCc2c(nn(C(=O)[C@H]3CCNc4ccc(F)cc43)c2N)C1 (single isomer, unassigned) [Example 165, (S*)-(3-amino-6-ethyl-4,5,6,7-tetrahydro-pyrazolo[3,4-c]pyridin-2-yl)(6-fluoro-1,2,3,4-tetrahydro-quinolin-4-yl)methanone]
> 50000	> 80000	CCN1CCc2c(c(N)nn2C(=O)C2CCNc3ccccc32)C1 (stereo not drawn) [Example 94, (3-amino-5-ethyl-4,5,6,7-tetrahydro-pyrazolo[4,3-c]pyridin-1-yl)(1,2,3,4-tetrahydro-quinolin-4-yl)methanone]
230	> 80000	Nc1c2c(nn1C(=O)C1CCNc3ccc(F)cc31)CN(S(=O)(=O)C1CC1)CC2 (stereo not drawn) [Example 144, (3-amino-6-(cyclopropyl-sulfonyl)-4,5,6,7-tetrahydro-pyrazolo[3,4-c]pyridin-2-yl)(6-fluoro-1,2,3,4-tetrahydro-quinolin-4-yl)methanone]
90	> 150000	Cc1cccc2c1NCC[C@@H]2C(=O)n1nc2c(c1N)CCOC2 (single isomer, unassigned) [Example 198, (S*)-(3-amino-4,5-dihydropyrano[3,4-c]pyrazol-2(7H)-yl)(8-methyl-1,2,3,4-tetrahydro-quinolin-4-yl)methanone]
70	> 25000	Cc1cc2c(C(=O)n3nc4c(c3N)CCN(C(=O)OC(C)(C)C)C4)cccc2[nH]1 [Example 7, Tert-butyl 3-amino-2-(2-methyl-1H-indole-4-carbonyl)-4,5-dihydro-2H-pyrazolo[3,4-c]pyridine-6(7H)-carboxylate]
450	> 85000	CCC(=O)N1CCc2c(nn(C(=O)C3CCNc4ccccc43)c2N)C1 (stereo not drawn) [Example 119, 1-(3-amino-2-(1,2,3,4-tetrahydro-quinoline-4-carbonyl)-4,5-dihydro-2H-pyrazolo[3,4-c]pyridin-6(7H)-yl)propan-1-one]
50	> 100000	CC(C)CN1CCc2c(nn(C(=O)C3CCNc4ccc(F)cc43)c2N)C1 (stereo not drawn) [Example 153, (3-amino-6-isobutyl-4,5,6,7-tetrahydro-pyrazolo[3,4-c]pyridin-2-yl)(6-fluoro-1,2,3,4-tetrahydro-quinolin-4-yl)methanone]
20000	70000	CN1CCc2c(c(N)nn2C(=O)C2CCCc3[nH]ccc32)C1 (stereo not drawn) [Example 98, (3-amino-5-methyl-4,5,6,7-tetrahydro-pyrazolo[4,3-c]pyridin-1-yl)(4,5,6,7-tetrahydro-1H-indol-4-yl)methanone]
200	> 70000	CC(C)S(=O)(=O)N1CCc2c(nn(C(=O)C3CCNc4ccccc43)c2N)C1 (stereo not drawn) [Example 127, (3-amino-6-(isopropyl-sulfonyl)-4,5,6,7-tetrahydro-pyrazolo[3,4-c]pyridin-2-yl)(1,2,3,4-tetrahydro-quinolin-4-yl)methanone]
100	> 90000	Cc1cccc2c1NCC[C@@H]2C(=O)n1nc2c(c1N)CCNC2 (single isomer, unassigned) [Example 176, (S*)-(3-amino-4,5,6,7-tetrahydro-pyrazolo[3,4-c]pyridin-2-yl)(8-methyl-1,2,3,4-tetrahydro-quinolin-4-yl)methanone]
130	70000	Nc1c2c(nn1C(=O)C1CCNc3ccc(F)cc31)CN(S(=O)(=O)C(F)F)CC2 (stereo not drawn) [Example 159, (3-amino-6-(difluoromethyl-sulfonyl)-4,5,6,7-tetrahydro-pyrazolo[3,4-c]pyridin-2-yl)(6-fluoro-1,2,3,4-tetrahydro-quinolin-4-yl)methanone]
800	> 80000	CNC(=O)N1CCc2nn(C(=O)C3CCNc4ccccc43)c(N)c2C1 (stereo not drawn) [Example 89, 3-amino-N-methyl-2-(1,2,3,4-tetrahydro-quinoline-4-carbonyl)-6,7-dihydro-2H-pyrazolo[4,3-c]pyridine-5(4H)-carboxamide]
1300	> 100000	CCN1CCc2nn(C(=O)C3CCNc4ccccc43)c(N)c2C1 (stereo not drawn) [Example 93, (3-amino-5-ethyl-4,5,6,7-tetrahydro-pyrazolo[4,3-c]pyridin-2-yl)(1,2,3,4-tetrahydro-quinolin-4-yl)methanone]
150	4500	Cn1cc2c(c1)C(C(=O)n1nc3c(c1N)CCN(S(C)(=O)=O)C3)CCC2 (stereo not drawn) [Example 26, (3-amino-6-(methylsulfonyl)-4,5,6,7-tetrahydropyrazolo[3,4-c]pyridin-2-yl)(2-methyl-4,5,6,7-tetrahydro-2H-isoindol-4-yl)methanone]
40	> 70000	CCc1cc(C)c2c(c1)C(C(=O)n1nc3c(c1N)CCN(S(C)(=O)=O)C3)CCN2 (stereo not drawn) [Example 55, (3-amino-6-(methylsulfonyl)-4,5,6,7-tetrahydropyrazolo[3,4-c]pyridin-2-yl)(6-ethyl-8-methyl-1,2,3,4-tetrahydroquinolin-4-yl)methanone]
10	9000	Cc1cc(F)cc2c1NCCC2C(=O)n1nc2c(c1N)CCN(S(C)(=O)=O)C2 (single isomer, unassigned) [Example 53, (S*)-(3-amino-6-(methylsulfonyl)-4,5,6,7-tetrahydropyrazolo[3,4-c]pyridin-2-yl)(6-fluoro-8-methyl-1,2,3,4-tetrahydroquinolin-4-yl)methanone]
80000	> 85000	CS(=O)(=O)N1CCc2c(N)nn(C(=O)C3CCNc4ccccc43)c2C1 (stereo not drawn) [Example 104, (3-amino-6-(methylsulfonyl)-4,5,6,7-tetrahydro-pyrazolo[3,4-c]pyridin-1-yl)(1,2,3,4-tetrahydro-quinolin-4-yl)methanone]
10	40000	CCc1cc(C)c2c(c1)C(C(=O)n1nc3c(c1N)CCN(S(C)(=O)=O)C3)CCN2 (single isomer, unassigned) [Example 69, (3-amino-6-(methylsulfonyl)-4,5,6,7-tetrahydropyrazolo[3,4-c]pyridin-2-yl)((S*)-6-ethyl-8-methyl-1,2,3,4-tetrahydroquinolin-4-yl)methanone]
100	25000	CS(=O)(=O)N1CCc2c(nn(C(=O)C3CCNc4c(F)cccc43)c2N)C1 (stereo not drawn) [Example 37, (3-amino-6-(methylsulfonyl)-4,5,6,7-tetrahydropyrazolo[3,4-c]pyridin-2-yl)(8-fluoro-1,2,3,4-tetrahydroquinolin-4-yl)methanone]
20	> 100000	CCN1CCc2c(nn(C(=O)[C@H]3CCNc4c(C)cccc43)c2N)C1 (single isomer, unassigned) [Example 173, (S*)-(3-amino-6-ethyl-4,5,6,7-tetrahydro-pyrazolo[3,4-c]pyridin-2-yl)(8-methyl-1,2,3,4-tetrahydroquinolin-4-yl)methanone]
140	35000	COc1cccc2c1NCCC2C(=O)n1nc2c(c1N)CCN(S(C)(=O)=O)C2 (single isomer, unassigned) [Example 63, (S*)-(3-amino-6-(methylsulfonyl)-4,5,6,7-tetrahydropyrazolo[3,4-c]pyridin-2-yl)(8-methoxy-1,2,3,4-tetrahydroquinolin-4-yl)methanone]
